Like-named read-outs stand apart in the source and are kept apart here. Marks after values point to notes of the source that are not given here.
Assays:
[1] = system: LRD7Ag; test: qRT-PCR of LRD7Ag root transcript in GA pretreated TL seedlings; type: in vivo, wheat; conditions: GA pretreated TL seedlings in LW
Description: FIG. 13 is data showing that gibberellins (GA) regulate lateral root formation in wheat. Panel (a) is a graph showing GA1 levels in P76 and TL roots in WW and LW conditions (mean±sd, n=30). “a” represents differences between WW and LW for a genotype and “b” represents significant genotypic differences under LW (p<0.05). Panel (b) is a graph showing expression of Agropyron allele of LRD7 (LRD7Ag) in the TL line in WW and LW conditions, with and without GA3 treatment. Transcript abundance was measured relative to WW, non-GA3 treated sample (mean±sd, n=3). “a” represents significant differences between WW and LW for roots with GA3 and no GA3 treatment, “b” represents a significant difference in response to GA treatment (p<0.05). […] Expression values were obtained relative to WW, non-GA3 treated sample as control (mean±sd, n=3). “a” represents significant differences between WW and LW for a genotype and “b” represents significant genotypic differences in LW conditions (p<0.05). […]
(§1) We used SuperScript VILO to synthesize cDNA for semi- and real-time quantitative PCR (qPCR) (Invitrogen Corp., Carlsbad, Calif.). […] Crossing point value (Cp or Ct), which was the point at which the fluorescence crosses the threshold, and melting curve analyses were obtained using the LightCycler Roche 480 Software v1.5. […]

[2] = system: TL and P76 seedlings; test: Effect of Gibberellin A3 (GA3) on lateral root density of wheat seedlings in WW and LW conditions; type: in vivo; conditions: for Lateral Root (PR) / Lateral Root Density / Primary Root Length: mean ± s.d., n = 30
Description: (§2) For the early seedling stage root screening we used the cigar roll method (Zhu et al., 2006, TAG, 113:1-10). Similar sized seeds were germinated in a petri dish with moist paper towel for three days in the dark at 22-2S° C. Three seedlings per genotype were placed between two sheets of germination paper and rolled vertically. Three batches of 10 cigar rolls, totaling 30 plants per genotype were soaked in tap water and placed vertically in 1 L beaker filled with SO mL of water. Seedlings were grown in a controlled environment using a Percival Intellus Control System incubator (Model: I36VLC8) set at 25/27° C., 11.5/12.5 h day/night, 50/70% relative humidity and illumination of 80 μmols m^−2 sec^−1 during the duration of the experiments (Percival Scientific, Inc., Iowa). Water was added to each beaker twice daily to maintain the volume of 50 ml. All measurements were carried until 6 days after germination. Measurements after Day 6 can potentially be affected by limiting seed resources that drive seedling growth. For gene expression experiments, seedlings were harvested at 2, 4 and 6 days after germination. Root tissue samples were collected and snap frozen. It was hypothesized that the differences in biomass and yield between the Agropyron 7DL lines and the corresponding parental genotypes could be due to increased investment in root production, thus increasing acquisition of water and nutrients from the soil. We used a parent line, Pavon76 (P76), the 1-96-1 translocation line (TL), and a negative control (NC) for the translocation event for these experiments (FIG. 1). The total number of lateral roots (>1 mm) on the primary root axis were counted, and lateral root density was calculated by dividing the number of lateral roots on the primary root axis by the primary root length. Statistical significance was determined using a one-way ANOVA using Tukeys method. Transcriptomic comparison of the TL line and P76 indicated the differential regulation of several gibberellic acid associated genes (GSE42214; Table 8). Therefore, we tested the role of GA in lateral root regulation by treating TL and P76 seedlings with 104 GA3 in WW and LW conditions. […] Given the positive impact of exogenous GA on lateral roots, we measured the endogenous GA level in 6 d seedling roots. GA1 decreased in P76 in LW compared to WW (FIG. 13a). […] Higher GA levels in TL than P76 in LW is likely associated with its ability to maintain lateral root growth in LW. Auxin, which promotes lateral root growth, was not deficient in P76 relative to TL in LW, further supporting a GA-dependent mechanism for maintaining lateral root growth in TL (FIG. 21) (Orman-Ligeza et al., 2013, Trends Plant Sci., 18:459-67; Lavenus et al, 2013, Trends Plant Sci., 18:450-8).

[3] = system: LRD7Ta; test: qRT-PCR of LRD7Ta expression in GA pretreated P76 roots; type: in vivo, wheat
Description: FIG. 13 is data showing that gibberellins (GA) regulate lateral root formation in wheat. Panel (a) is a graph showing GA1 levels in P76 and TL roots in WW and LW conditions (mean±sd, n=30). “a” represents differences between WW and LW for a genotype and “b” represents significant genotypic differences under LW (p<0.05). Panel (b) is a graph showing expression of Agropyron allele of LRD7 (LRD7Ag) in the TL line in WW and LW conditions, with and without GA3 treatment. Transcript abundance was measured relative to WW, non-GA3 treated sample (mean±sd, n=3). “a” represents significant differences between WW and LW for roots with GA3 and no GA3 treatment, “b” represents a significant difference in response to GA treatment (p<0.05). […] “a” represents significant differences between WW and LW for a genotype and “b” represents significant genotypic differences in LW conditions (p<0.05). […] The “a” represents significance between WW and LW and “b” indicates significance between CBO37 and RNAi or OE events or between P76 and TL under LW (p<0.05).
as §1

[4] = system: P76 and TL seedlings; test: Effect of GA biosynthesis inhibitor Paclobutrazol (PAC) on lateral root density of wheat seedlings; type: in vivo; conditions: for Lateral Root Density / Number of Lateral Roots / Primary Root Length: 6 d old seedlings
Description: as §2

C=C1C[C@]23C[C@@]1(O)CC[C@H]2[C@@]12C=C[C@H](O)[C@@](C)(C(=O)O1)[C@H]2[C@@H]3C(=O)O [GA3, Gibberellin A3]
Repression of root transcript abundance of LRD7Ag relative to untreated WW control [1]: 5 fold
Effect of GA treatment on lateral root number and density ([2]; P76, LW): restored lateral root number and density to WW levels
Lateral Root (PR) ([2]; P76, LW (+GA3)): 23 ± 3^b
Lateral Root Density ([2]; P76, LW (+GA3)): 0.96 ± 0.1^b cm^−1
Primary Root Length ([2]; P76, LW (+GA3)): 23.9 ± 2.2^b cm
Lateral Root (PR) ([2]; P76, WW (+GA3)): 24 ± 4
Lateral Root Density ([2]; P76, WW (+GA3)): 0.96 ± 0.1 cm⁻¹
Primary Root Length ([2]; P76, WW (+GA3)): 25.5 ± 2.8 cm
Effect of GA treatment on roots ([2]; P76 and TL, WW conditions): had no effect on roots of either genotype
Effect of GA treatment on lateral root number and density ([2]; TL, LW): increased the TL lateral root number and density under LW to above the untreated values
Lateral Root (PR) ([2]; TL, LW (+GA3)): 38 ± 4^b
Lateral Root Density ([2]; TL, LW (+GA3)): 1.44 ± 0.1^b cm^−1
Primary Root Length ([2]; TL, LW (+GA3)): 26.4 ± 2.4 cm
Lateral Root (PR) ([2]; TL, WW (+GA3)): 24 ± 5
Lateral Root Density ([2]; TL, WW (+GA3)): 0.89 ± 0.2 cm⁻¹
LRD7Ta expression in roots compared to LW (no GA) roots [3]: down-regulated
LRD7Ta expression in roots compared to LW (no GA) roots ([3]; listed as GA): decreased LRD7Ta expression

CC(C)(C)[C@@H](O)[C@@H](Cc1ccc(Cl)cc1)n1cncn1 (racemic) [PAC, Paclobutrazol]
Lateral Root Density ([4]; P76, LW (+PAC)): 0.22 ± 0.1^b cm−1
Number of Lateral Roots ([4]; P76, LW (+PAC)): 5 ± 2^b
Primary Root Length ([4]; P76, LW (+PAC)): 24.2 ± 2.9 cm
Lateral Root Density ([4]; P76, WW (+PAC)): 0.45 ± 0.1^b cm−1
Number of Lateral Roots ([4]; P76, WW (+PAC)): 11 ± 2^b
Primary Root Length ([4]; P76, WW (+PAC)): 25.3 ± 3.0 cm
Lateral Root Density ([4]; TL, LW (+PAC)): 0.41 ± 0.1^b cm−1
Number of Lateral Roots ([4]; TL, LW (+PAC)): 10 ± 1^b
Primary Root Length ([4]; TL, LW (+PAC)): 23.9 ± 2.6 cm
Lateral Root Density ([4]; TL, WW (+PAC)): 0.49 ± 0.1^b cm−1
Number of Lateral Roots ([4]; TL, WW (+PAC)): 11 ± 2^b
Primary Root Length ([4]; TL, WW (+PAC)): 22.7 ± 2.4 cm
Effect on lateral root formation ([4]; both P76 and TL): specifically suppressed lateral root formation
